Starred links: 1 amine or outer side, 2 acyl side, 3 side chain; linkers in the order of their positions; H or OH if unused. Non-standard residues stand in square brackets, D forms with d. Residues, ends and D or L forms follow the SMILES beside them. Groups on a side chain read outwards from the residue. *: point of attachment. C18 diacid = O=C(O)CCCCCCCCCCCCCCCCC(=O)*; C17 diacid = O=C(O)CCCCCCCCCCCCCCCC(=O)*; γGlu = O=C(O)[C@H](CCC(=O)[*:2])N[*:1]; NMeY = CN[C@@H](Cc1ccc(O)cc1)C(=O)O; AEEA = NCCOCCOCC(=O)O; Aib = CC(C)(N)C(=O)O

Solubility data for five compounds are collected here from patent US20230143604A1, “QW DOSING OF GIP RECEPTOR AGONIST PEPTIDE COMPOUNDS AND USES THEREOF” (TAKEDA PHARMACEUTICAL COMPANY LIMITED, priority 2020, published 2023).

A short description of the series: physchem. The essentials:
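3 mg of peptide treated with 100 μL portions of 200 mM phosphate buffer pH 7.4, sonicating/vortexing up to 1 min, with further buffer added until fully dissolved. Solubility then quantified by HPLC.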

[1] abbreviates: pH 7.4, aqueous buffer, pH 7.4 Phosphate Buffer - Solubility, 200 mM Phosphate buffer pH 7.4.
The mark [2] stands for this setting: pH 7.4, solubility in phosphate buffer at pH 7.4, 200 mM phosphate buffer pH 7.4.

With `CC[C@H](C)[C@H](NC(=O)[C@H](CO)NC(=O)[C@H](Cc1ccc(O)cc1)NC(=O)[C@H](CC(=O)O)NC(=O)[C@H](CO)NC(=O)[C@@H](NC(=O)[C@H](Cc1ccccc1)NC(=O)[C@@H](NC(=O)CNC(=O)[C@H](CCC(=O)O)NC(=O)C(C)(C)NC(=O)[C@H](Cc1ccc(O)cc1)NC)[C@@H](C)O)[C@@H](C)CC)C(=O)N[C@@H](C)C(=O)N[C@@H](CC(C)C)C(=O)N[C@@H](CC(=O)O)C(=O)N[C@@H](CCCNC(=N)N)C(=O)NC(C)(C)C(=O)N[C@@H](C)C(=O)N[C@@H](CCC(N)=O)C(=O)NC(C)(C)C(=O)N[C@@H](CCCCNC(=O)COCCOCCNC(=O)COCCOCCNC(=O)CC[C@H](NC(=O)CC[C@H](NC(=O)CCCCCCCCCCCCCCCCC(=O)O)C(=O)O)C(=O)O)C(=O)N[C@@H](Cc1ccccc1)C(=O)N[C@H](C(=O)N[C@@H](CC(N)=O)C(=O)N[C@@H](Cc1c[nH]c2ccccc12)C(=O)N[C@@H](CC(C)C)C(=O)N[C@@H](CC(C)C)C(=O)N[C@@H](C)C(=O)N[C@@H](CCC(N)=O)C(=O)N[C@@H](CCCNC(=N)N)C(=O)NCC(=O)NCC(=O)NCC(=O)NCC(=O)N[C@@H](CO)C(N)=O)C(C)C` [Compound 21] (H-[NMeY][Aib]EGTFISDYSIALDR[Aib]AQ[Aib]K([AEEA-AEEA-γGlu-γGlu-C18 diacid])FVNWLLAQRGGGGS-NH2), the solubility (pH 7.4) is ≥ 15 mg/mL and the solubility (pH 7.4, aqueous buffer) is ≥ 30 mg/mL.
In the case of `CC[C@H](C)[C@H](NC(=O)[C@H](Cc1ccccc1)NC(=O)[C@@H](NC(=O)CNC(=O)[C@H](CCC(=O)O)NC(=O)C(C)(C)NC(=O)[C@H](Cc1ccc(O)cc1)NC)[C@@H](C)O)C(=O)N[C@@H](CO)C(=O)N[C@@H](CC(=O)O)C(=O)N[C@@H](Cc1ccc(O)cc1)C(=O)N[C@@H](CO)C(=O)N[C@H](C(=O)NC(C)(C)C(=O)N[C@@H](CC(C)C)C(=O)N[C@@H](CC(=O)O)C(=O)N[C@@H](CCCNC(=N)N)C(=O)NC(C)(C)C(=O)N[C@@H](C)C(=O)N[C@@H](CCC(N)=O)C(=O)NC(C)(C)C(=O)N[C@@H](CCCCNC(=O)COCCOCCNC(=O)CC[C@H](NC(=O)CC[C@H](NC(=O)CCCCCCCCCCCCCCCCC(=O)O)C(=O)O)C(=O)O)C(=O)N[C@@H](Cc1ccccc1)C(=O)N[C@H](C(=O)N[C@@H](CC(N)=O)C(=O)N[C@@H](Cc1c[nH]c2ccccc12)C(=O)N[C@@H](CC(C)C)C(=O)N[C@@H](CC(C)C)C(=O)N[C@@H](C)C(=O)N[C@@H](CCC(N)=O)C(=O)N[C@@H](CO)C(=O)N1CCC[C@H]1C(=O)N[C@@H](CO)C(=O)N[C@@H](CO)C(=O)NCC(=O)N[C@@H](C)C(=O)N1CCC[C@H]1C(=O)N1CCC[C@H]1C(=O)N1CCC[C@H]1C(=O)N[C@@H](CO)C(N)=O)C(C)C)[C@@H](C)CC` [Compound 93] (H-[NMeY][Aib]EGTFISDYSI[Aib]LDR[Aib]AQ[Aib]K([AEEA-γGlu-γGlu-C18 diacid])FVNWLLAQSPSSGAPPPS-NH2), the solubility by setting is: under setting [1], ≥ 60 mg/mL; under setting [2], ≥ 15 mg/mL.
Take `CC[C@H](C)[C@H](NC(=O)[C@H](Cc1ccccc1)NC(=O)[C@@H](NC(=O)CNC(=O)[C@H](CCC(=O)O)NC(=O)C(C)(C)NC(=O)[C@H](Cc1ccc(O)cc1)NC)[C@@H](C)O)C(=O)N[C@@H](CO)C(=O)N[C@@H](CC(=O)O)C(=O)N[C@@H](Cc1ccc(O)cc1)C(=O)N[C@@H](CO)C(=O)N[C@H](C(=O)NC(C)(C)C(=O)N[C@@H](CC(C)C)C(=O)N[C@@H](CC(=O)O)C(=O)N[C@@H](CCCNC(=N)N)C(=O)NC(C)(C)C(=O)N[C@@H](C)C(=O)N[C@@H](CCC(N)=O)C(=O)NC(C)(C)C(=O)N[C@@H](CC(N)=O)C(=O)N[C@@H](Cc1ccccc1)C(=O)N[C@H](C(=O)N[C@@H](CC(N)=O)C(=O)N[C@@H](Cc1c[nH]c2ccccc12)C(=O)N[C@@H](CC(C)C)C(=O)N[C@@H](CC(C)C)C(=O)N[C@@H](C)C(=O)N[C@@H](CCC(N)=O)C(=O)N[C@@H](CCCCNC(=O)COCCOCCNC(=O)COCCOCCNC(=O)CC[C@H](NC(=O)CC[C@H](NC(=O)CCCCCCCCCCCCCCCC(=O)O)C(=O)O)C(=O)O)C(=O)NCC(=O)NCC(=O)NCC(=O)NCC(=O)N[C@@H](CO)C(N)=O)C(C)C)[C@@H](C)CC` [Compound 33] (H-[NMeY][Aib]EGTFISDYSI[Aib]LDR[Aib]AQ[Aib]NFVNWLLAQK([AEEA-AEEA-γGlu-γGlu-C17 diacid])GGGGS-NH2): the solubility runs as follows: (pH 7.4) ≥ 15 mg/mL; (pH 7.4, aqueous buffer) ≥ 30 mg/mL.
Turning to `CC[C@H](C)[C@H](NC(=O)[C@H](CCCNC(=N)N)NC(=O)[C@H](CC(=O)O)NC(=O)[C@H](CC(C)C)NC(=O)[C@H](C)NC(=O)[C@@H](NC(=O)[C@H](CO)NC(=O)[C@H](Cc1ccc(O)cc1)NC(=O)[C@H](CC(=O)O)NC(=O)[C@H](CO)NC(=O)[C@@H](NC(=O)[C@H](Cc1ccccc1)NC(=O)[C@@H](NC(=O)CNC(=O)[C@H](CCC(=O)O)NC(=O)C(C)(C)NC(=O)[C@H](Cc1ccc(O)cc1)NC)[C@@H](C)O)[C@@H](C)CC)[C@@H](C)CC)C(=O)N[C@@H](C)C(=O)N[C@@H](CCC(N)=O)C(=O)N[C@@H](CCC(N)=O)C(=O)N[C@@H](CCCCNC(=O)COCCOCCNC(=O)COCCOCCNC(=O)CC[C@H](NC(=O)CC[C@H](NC(=O)CCCCCCCCCCCCCCCCC(=O)O)C(=O)O)C(=O)O)C(=O)N[C@@H](Cc1ccccc1)C(=O)N[C@H](C(=O)N[C@@H](CC(N)=O)C(=O)N[C@@H](Cc1c[nH]c2ccccc12)C(=O)N[C@@H](CC(C)C)C(=O)N[C@@H](CC(C)C)C(=O)N[C@@H](C)C(=O)N[C@@H](CCC(N)=O)C(=O)N[C@@H](CO)C(=O)N1CCC[C@H]1C(=O)N[C@@H](CO)C(=O)N[C@@H](CO)C(=O)NCC(=O)N[C@@H](C)C(=O)N1CCC[C@H]1C(=O)N1CCC[C@H]1C(=O)N1CCC[C@H]1C(=O)N[C@@H](CO)C(=O)O)C(C)C` [Compound 177] (H-[NMeY][Aib]EGTFISDYSIALDRIAQQK([AEEA-AEEA-γGlu-γGlu-C18 diacid])FVNWLLAQSPSSGAPPPS-OH), the solubility is ≥ 30 mg/mL under setting [1] and ≥ 15 mg/mL under setting [2].
On to `CC[C@H](C)[C@H](NC(=O)[C@H](CO)NC(=O)[C@H](Cc1ccc(O)cc1)NC(=O)[C@H](CC(=O)O)NC(=O)[C@H](CO)NC(=O)[C@@H](NC(=O)[C@H](Cc1ccccc1)NC(=O)[C@@H](NC(=O)CNC(=O)[C@H](CCC(=O)O)NC(=O)C(C)(C)NC(=O)[C@H](Cc1ccc(O)cc1)NC)[C@@H](C)O)[C@@H](C)CC)C(=O)N[C@@H](C)C(=O)N[C@@H](CC(C)C)C(=O)N[C@@H](CC(=O)O)C(=O)N[C@@H](CCCNC(=N)N)C(=O)NC(C)(C)C(=O)N[C@@H](Cc1c[nH]cn1)C(=O)N[C@@H](CCC(N)=O)C(=O)NC(C)(C)C(=O)N[C@@H](CCCCNC(=O)COCCOCCNC(=O)COCCOCCNC(=O)CC[C@H](NC(=O)CC[C@H](NC(=O)CCCCCCCCCCCCCCCC(=O)O)C(=O)O)C(=O)O)C(=O)N[C@@H](Cc1ccccc1)C(=O)N[C@H](C(=O)N[C@@H](CC(N)=O)C(=O)N[C@@H](Cc1c[nH]c2ccccc12)C(=O)N[C@@H](CC(C)C)C(=O)N[C@@H](CC(C)C)C(=O)N[C@@H](C)C(=O)N[C@@H](CCC(N)=O)C(=O)N[C@@H](CCCNC(=N)N)C(N)=O)C(C)C` [Compound 257] (H-[NMeY][Aib]EGTFISDYSIALDR[Aib]HQ[Aib]K([AEEA-AEEA-γGlu-γGlu-C17 diacid])FVNWLLAQR-NH2), for which, where the note is “pH 7.4, aqueous buffer”, the solubility was ≥ 7.5 mg/mL.
